Data: patent publication US20220367023A1, “Method for Predicting a Suitable Therapy” (National University of Singapore, priority 2019, published 2022)
Where two headings read alike, the source gives them in different places.

Tested on: primary HSTCL cells from a patient
Assay: Ex vivo QPOP drug combination sensitivity, CellTiter-Glo cell viability (11 drugs at 3 doses, OACD)
Type: cell-based, human
[1] = Homo sapiens, concentration used in the ex vivo QPOP experiment, read-out: IC15
[2] = Homo sapiens, concentration used in the ex vivo QPOP experiment, read-out: IC30
[3] = output cell viability, 11 drugs at 3 doses
[4] = concentration used in the ex vivo QPOP experiment

Experimental: Tumor cells from an oncology patient sample are treated with a series of test drug combinations defined by Resolution IV Orthogonal Array Composite Design. This array of tests is used to derive coefficients for single drug and drug-drug interactions for all the drugs within the drug search set. These coefficients are used to calculate a predicted output of potential drug combinations (up to 4 drugs) from the drug search set. Patient-specific drug combinations are prioritized based on predicted output of single drug, 2-drug, 3-drug or 4-drug combinations.
In the current embodiment, primary patient sample that contains tumor cells, either from a blood sample or solid tumor biopsy, is collected. Tumor cells are isolated and seeded 2000 cells/well in Nunc™ 384-Well Clear Polystyrene Plates. In the examples used here, cell viability was performed using the CellTiter-Glo® Luminescent Cell Viability Assay following the manufacturer's instructions (Promega, Madison, Wis., USA).
Datasets for analysis by QPOP are built by ex vivo treatment of primary patient tumor cells with a series of drug combinations determined by orthogonal array composite design (OACD) to use the least number of combinations sufficient for factor screening and in-depth analyses, in concentrations that are at or below clinically approved doses (max Pk conc.), Table 1. […] In these examples here, the viability of cells exposed to the various drug combinations are the phenotypic output which is analyzed by the QPOP assay. The correlation of treatment combination (input) and viability (output) was fitted into a second-order quadratic equation. The coefficients of the second-order equation represent the correlation between the input, drug dose of the drug combination, and the output cell viability, allowing for optimizing drug combination. In the analysis, each drug combination was represented as a vector and coded dosages were used in MATLAB. The second-order quadratic equation is as follows:
where y represents the desired output, xn is the nth drug dosage, β0 is the intercept term, βn is the single-drug coefficient of the nth drug, βmn is the interaction coefficient between the mth and nth drugs, and βnn is the quadratic coefficient for the nth drug. […] The coefficients were calibrated using the data points in dose response assay of single drugs and drug combination (Table 2). To ensure the robustness and integrity of the assay, Z′ score is calculated after every QPOP analysis.

In the case of `CC(C)C[C@H](NC(=O)[C@H](Cc1ccccc1)NC(=O)c1cnccn1)B(O)O` [Bortezomib], the IC15 [1] is reported as 6 nM, the IC30 [2] is reported as 12 nM and the “Coefficient estimates of the second-order quadratic fit” value (shortened to “Coefficient estimates”) [3] is reported as 5456.

With `N.N.[Cl][Pt][Cl]` [Cisplatin] the IC15 (concentration used in the ex vivo QPOP experiment, read-out: IC15) was 1500 nM, the IC30 (concentration used in the ex vivo QPOP experiment, read-out: IC30) was 3000 nM and the “Coefficient estimates” value [3] was −0.06756. For the same molecule, the “Estimate, single-drug coefficient of the second-order quadratic fit” value [3] was 0.06189.

Work on `C[C@@H]1C[C@H]2[C@@H]3CCC4=CC(=O)C=C[C@]4(C)[C@@]3(F)[C@@H](O)C[C@]2(C)[C@@]1(O)C(=O)CO` [Dexamethasone] yielded an IC15 (Homo sapiens) of 60 nM and an IC30 (Homo sapiens) of 120 nM.

`Nc1ccn([C@@H]2O[C@H](CO)[C@@H](O)[C@@H]2O)c(=O)n1` [Cytarabine] showed an IC15 (Homo sapiens) of 233 nM and an IC30 (Homo sapiens) of 466 nM.

In the case of `O=P1(NCCCl)OCCCN1CCCl` (centres unmarked) [Ifosfamide], the IC15 (Homo sapiens) is reported as 15000 nM, the IC30 (Homo sapiens) is reported as 30000 nM and the “Estimate, quadratic coefficient of the second-order quadratic fit” value [3] is reported as 0.001006.

Molecule `Nc1ccn([C@@H]2O[C@H](CO)[C@@H](O)C2(F)F)c(=O)n1` [Gemcitabine] has an IC15 [1] of 7.79 nM and an IC30 [2] of 15.6 nM.

For `COc1cccc2c1C(=O)c1c(O)c3c(c(O)c1C2=O)C[C@@](O)(C(=O)CO)C[C@@H]3O[C@H]1C[C@H](N)[C@H](O)[C@H](C)O1` [Doxorubucin], the IC15 [1] was 22.5 nM and the IC30 [2] was 45 nM.

For `COc1cc([C@@H]2c3cc4c(cc3[C@@H](O[C@@H]3O[C@@H]5CO[C@@H](C)O[C@H]5[C@H](O)[C@H]3O)[C@H]3COC(=O)[C@H]23)OCO4)cc(OC)c1O` [Etoposide], the IC15 [1] was 283 nM, the IC30 [2] was 565 nM and the “Coefficient estimates” value [3] was −3.739.

Molecule `O=P1(N(CCCl)CCCl)NCCCO1` (centres unmarked) [Cyclophosphamide] has an IC15 (Homo sapiens) of 30000 nM and an IC30 (Homo sapiens) of 60000 nM.

In the case of L-asparaginase, the IC15 [4] is reported as 0.3 IU/ml, the IC30 [4] is reported as 0.6 IU/ml and the “Coefficient estimates” value [3] is reported as 2.237. For the same molecule, the “Estimate, single-drug coefficient of the second-order quadratic fit” value [3] was −1.282.

`CN(Cc1cnc2nc(N)nc(N)c2n1)c1ccc(C(=O)N[C@@H](CCC(=O)O)C(=O)O)cc1` [Methotrexate] was tested, and the IC15 [1] was 300 nM and the IC30 [2] was 600 nM.
